Laboratory results from PubChem BioAssay (NCI).
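Results reflect a 48-hour exposure of cells in 96-well plates to compound at five concentrations. The concentration for 50% growth inhibition is given as GI50. The concentration for full growth arrest is given as TGI.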

Legend:
Assay in all cases: inhibition of tumour cell growth, NCI panel, 48 h
A498 renal = system: A498 renal
A549 NSCLC = system: A549 NSCLC
HL-60(TB) leukemia = system: HL-60(TB) leukemia
MCF7 breast = system: MCF7 breast
MDA-MB-231 breast = system: MDA-MB-231 breast
NCI-H23 lung = system: NCI-H23 lung
OVCAR-4 ovarian = system: OVCAR-4 ovarian
SF-268 CNS = system: SF-268 CNS
SN12C renal = system: SN12C renal
U251 CNS = system: U251 CNS

Row | Compound | TGI (A498 renal) [µM] | TGI (A549 NSCLC) [µM] | TGI (HL-60(TB) leukemia) [µM] | TGI (MCF7 breast) [µM] | TGI (MDA-MB-231 breast) [µM] | TGI (NCI-H23 lung) [µM] | TGI (OVCAR-4 ovarian) [µM] | TGI (SF-268 CNS) [µM] | TGI (SN12C renal) [µM] | TGI (U251 CNS) [µM] | GI50 (A498 renal) [µM] | GI50 (A549 NSCLC) [µM] | GI50 (HL-60(TB) leukemia) [µM] | GI50 (MCF7 breast) [µM] | GI50 (MDA-MB-231 breast) [µM] | GI50 (NCI-H23 lung) [µM] | GI50 (OVCAR-4 ovarian) [µM] | GI50 (SF-268 CNS) [µM] | GI50 (SN12C renal) [µM] | GI50 (U251 CNS) [µM]
1 | Cc1ccc(S(=O)(=O)N/N=C/C2(c3ccccc3)c3ccccc3-c3ccccc32)cc1 | 33 | 19.8 | > 100 | 29.6 | 20.8 | 37.1 | 24.3 | 52.7 | 23.9 | 26.7 |  |  |  |  |  |  |  |  |  | 
2 | O=[N+]([O-])c1ccc(Oc2c(Cl)cc(S(=O)(=O)/N=C(\NO)Nc3ccc(Cl)cc3)cc2Cl)cc1 | 23.3 | 27.8 | 13.7 | 24.1 | 25.3 | 23.6 | 17.3 | 35.3 | 25.8 | 25.7 |  |  |  |  |  |  |  |  |  | 
3 | CC1=NN(c2cccc(Cl)c2)C2(C1=C/C=C/c1ccccc1)C(Cl)C(=O)N2c1nc2ccccc2s1 (stereo not given) | > 66 | > 100 | > 68.3 | > 100 | 58.3 | > 80.3 | > 100 | 56.1 | > 100 | 37.2 |  |  |  |  |  |  |  |  |  | 
4 | CC1=C[C@@H]2Cc3nc4cc(Cl)ccc4c(N)c3[C@H](C1)C2 | 23.4 | 34.9 | 35.3 | 23.3 | 28.7 | 22.3 | 18.2 | 25.8 | 29.6 | 37.7 |  |  |  |  |  |  |  |  |  | 
5 | Cc1nc(N)c(N2CCN([N+](=O)[O-])CC2)c(=O)[nH]1 | > 100 | > 100 | > 100 | > 100 | > 100 | > 100 | > 100 | > 100 | > 100 | > 100 |  |  |  |  |  |  |  |  |  | 
6 | Cc1cccc2c1CC1(C2)Cc2c(C)cccc2C1=O (stereo not given) | 88.9 | > 100 | 52.6 | 94.7 | 53.7 | > 100 | > 100 | 87.1 | 74.2 | 65.4 |  |  |  |  |  |  |  |  |  | 
7 | Cc1ccc(-c2[nH]c(=O)n(C3OC(CO)C(O)C(O)C3O)c(=O)c2C#N)cc1 (stereo not given) | > 100 | > 100 | > 100 | > 100 | > 100 | > 100 | > 100 | > 100 | > 100 | > 100 |  |  |  |  |  |  |  |  |  | 
8 | Cc1ccc(C(=C2Sc3ccccc3S2)C(=C2Sc3ccccc3S2)c2ccc(C)s2)s1 | > 100 | > 100 | > 100 | > 100 | > 100 | > 100 | > 100 | > 100 | > 100 | > 100 |  |  |  |  |  |  |  |  |  | 
9 | CO[C@H]1/C=C(/C)CCC[C@H](C)[C@H](O)[C@@H](C)C(=O)C(C)(C)[C@@H](O)CC(=O)O[C@@H]1/C(C)=C/c1csc(C)n1 | > 100 | > 100 | > 100 | > 100 | > 100 | > 100 | > 100 | > 100 | > 100 | > 100 | 0.0234 | 0.0219 | < 0.01 | < 0.01 | 0.0428 | 0.0349 | 0.071 | 0.0346 | 0.0488 | 0.0143
10 | O=C(Nc1nccs1)c1c(O)nc2sccn2c1=O | > 10 | > 10 | > 10 | > 10 | > 10 | > 10 | > 10 | > 10 | > 10 | > 10 |  |  |  |  |  |  |  |  |  | 
11 | COc1ccc(-c2nc(SCC(=O)N/N=C/c3ccc(N(C)C)cc3)[nH]c2-c2ccc(OC)cc2)cc1 | > 100 | > 100 | > 100 | > 100 | > 100 | > 100 | > 100 | > 100 | > 100 | > 100 |  |  |  |  |  |  |  |  |  | 
12 | CC1OC(OC2C(OC(=O)[C@]34CCC(C)(C)C[C@H]3C3=CC[C@@H]5[C@@]6(C)CC[C@H](OC7OC(C(=O)O)C(O)C(O)C7O)C(C)(C)[C@@H]6CC[C@@]5(C)[C@]3(C)C[C@H]4O)OCC(O)C2O)C(O)C(OC2OCC(O)(CO)C2O)C1OC1OCC(O)C(O)C1O (stereo not given in full) | 3.47 | 14.8 | 11.4 | 18.3 | 12.7 | 7.18 | 22.7 | 33.7 | 11 | 21.4 |  |  |  |  |  |  |  |  |  | 
13 | c1c[nH]c(-c2ccc(-c3ccc[nH]3)c3nsnc23)c1 | > 100 | > 70 | > 100 | > 100 | > 84.8 | 79.6 | > 16.5 | > 100 | > 100 | > 66.5 |  |  |  |  |  |  |  |  |  | 
